The nature of data set [1]: Solubility screening of bifenthrin in various solvents. The data set is classed as physicochemical. On the procedure:
Four-milliliter (mL) vials are charged with bifenthrin (10 to 50 wt %), a stir bar, and solvent (90 to 50 wt %). The vials are capped and taped to seal. The vials are secured in a vial rack and shaken on a laboratory shaker for 12 hours at ambient lab temperature (21° C.) and humidity (51%). After 12 hours each sample set is evaluated for solubility of solid:
Yes—Homogeneous clear solution
No—Solids present in the sample

The conditions of data set [2]: obtained from Hansen's book, pages 399 and 418; cited from earlier work.
[3] abbreviates: bifenthrin 10 wt % in solvent, shaken 12 hours at 21° C., humidity 51%.
Setting [4] is: bifenthrin 20 wt % in solvent, shaken 12 hours at 21° C., humidity 51%.
Setting [5] is: bifenthrin 30 wt % in solvent, shaken 12 hours at 21° C., humidity 51%.
Where [6] appears, read: bifenthrin 40 wt % in solvent, shaken 12 hours at 21° C., humidity 51%.
Setting [7] is: bifenthrin 50 wt % in solvent, shaken 12 hours at 21° C., humidity 51%.

Like-named read-outs stand apart in the source and are kept apart here.

The text below walks through data of US20200178526A1, “Emulsifiable Concentrates” (priority 2016, published 2020).

With `CCCCOCCOCCOC(C)=O` [BUTYL CARBITOL ™ ACETATE, diethylene glycol n-butyl ether acetate], in data set [1], the “Solubility of Bifenthrin, 10 wt %” value is recorded as “YES”; the “Solubility of Bifenthrin, 20 wt %” value is “YES”; the “Solubility of Bifenthrin, 30 wt %” value was “YES”; the “Solubility of Bifenthrin, 40 wt %” value is recorded as “NO”. Besides, in data set [1], the “Solubility of Bifenthrin, 50 wt %” value was “NO”. Also, in data set [2], the “Hansen Parameter δH (hydrogen bonding)” value is listed as 8.2 (J/cc)^1/2 and the “Hansen Parameter δP (polar)” value was 4.1 (J/cc)^1/2.

For the compound `CCCCOCCOC(C)=O` [BUTYL CELLOSOLVE ™ ACETATE, ethylene glycol n-butyl ether acetate], the “Solubility of Bifenthrin, 10 wt %” value in data set [1] (setting [3]) is “YES”. For the same compound, the “Solubility of Bifenthrin, 20 wt %” value in data set [1] (setting [4]) is listed as “YES”. For the same compound, in data set [1] (setting [5]), the “Solubility of Bifenthrin, 30 wt %” value is “YES”. In data set [1] (setting [6]), the “Solubility of Bifenthrin, 40 wt %” value was “YES”. Besides, the “Solubility of Bifenthrin, 50 wt %” value in data set [1] (setting [7]) is recorded as “NO”. Moreover, in data set [2], the “Hansen Parameter δH (hydrogen bonding)” value is listed as 8.8 (J/cc)^1/2 and the “Hansen Parameter δP (polar)” value was 4.5 (J/cc)^1/2.

For the compound `CCOCCOCCO` [CARBITOL ™, diethylene glycol monoethyl ether], in data set [1], the “Solubility of Bifenthrin, 10 wt %” value was “YES”; the “Solubility of Bifenthrin, 20 wt %” value is “YES”; the “Solubility of Bifenthrin, 30 wt %” value is “NO”; the “Solubility of Bifenthrin, 40 wt %” value is “NO”. In data set [1], the “Solubility of Bifenthrin, 50 wt %” value is on record as “NO”.

Consider `CCCCCCCCCCCC(=O)OCC` [DIAMOSOLV ™ 323, ethyl laurate], for which, in data set [1], the “Solubility of Bifenthrin, 10 wt %” value is on record as “YES”; the “Solubility of Bifenthrin, 20 wt %” value is recorded as “YES”; the “Solubility of Bifenthrin, 30 wt %” value is “NO”; the “Solubility of Bifenthrin, 40 wt %” value is recorded as “NO”. Moreover, the “Solubility of Bifenthrin, 50 wt %” value in data set [1] was “NO”.

As for `CC(CO)OCC(C)Oc1ccccc1` (centres unmarked) [DOWANOL ™ DiPPH, dipropylene glycol phenyl ether], in data set [1], the “Solubility of Bifenthrin, 10 wt %” value is listed as “YES”; the “Solubility of Bifenthrin, 20 wt %” value is on record as “NO”; the “Solubility of Bifenthrin, 30 wt %” value was “NO”; the “Solubility of Bifenthrin, 40 wt %” value was “NO”. Also, the “Solubility of Bifenthrin, 50 wt %” value in data set [1] is “NO”.

Consider `OCCOc1ccccc1` [DOWANOL ™ EPH, ethylene glycol phenyl ether], for which the “Solubility of Bifenthrin, 10 wt %” value in data set [1] (setting [3]) is given as “NO”. Further, in data set [1] (setting [4]), the “Solubility of Bifenthrin, 20 wt %” value was “NO”. The “Solubility of Bifenthrin, 30 wt %” value in data set [1] (setting [5]) is reported as “NO”. Also, the “Solubility of Bifenthrin, 40 wt %” value in data set [1] (setting [6]) is “NO”. For the same compound, in data set [1] (setting [7]), the “Solubility of Bifenthrin, 50 wt %” value is listed as “NO”.

With `CC(=O)OCC(C)OC(C)=O` (centres unmarked) [DOWANOL ™ PGDA, propylene glycol diacetate], in data set [1], the “Solubility of Bifenthrin, 10 wt %” value is reported as “YES”; the “Solubility of Bifenthrin, 20 wt %” value is recorded as “YES”; the “Solubility of Bifenthrin, 30 wt %” value is on record as “YES”; the “Solubility of Bifenthrin, 40 wt %” value is reported as “NO”. Moreover, the “Solubility of Bifenthrin, 50 wt %” value in data set [1] is given as “NO”.

With `CC(O)COc1ccccc1` (centres unmarked) [DOWANOL ™ PPH, propylene glycol phenyl ether], in data set [1], the “Solubility of Bifenthrin, 10 wt %” value was “YES”; the “Solubility of Bifenthrin, 20 wt %” value is “NO”; the “Solubility of Bifenthrin, 30 wt %” value is “NO”; the “Solubility of Bifenthrin, 40 wt %” value is on record as “NO”. For the same compound, in data set [1], the “Solubility of Bifenthrin, 50 wt %” value is reported as “NO”.

Consider `CCCCOC(C)COC(C)COC(C)CO` (centres unmarked) [DOWANOL ™ TPNB, tripropylene glycol n-butyl ether], for which, in data set [1], the “Solubility of Bifenthrin, 10 wt %” value was “YES”; the “Solubility of Bifenthrin, 20 wt %” value is recorded as “YES”; the “Solubility of Bifenthrin, 30 wt %” value is “NO”; the “Solubility of Bifenthrin, 40 wt %” value is on record as “NO”. For the same compound, the “Solubility of Bifenthrin, 50 wt %” value in data set [1] was “NO”.

As for `CCCCOCCOC(=O)c1ccccc1` [XU40782.00, ethylene glycol n-butyl ether benzoate], in data set [1], the “Solubility of Bifenthrin, 10 wt %” value is “YES”; the “Solubility of Bifenthrin, 20 wt %” value is recorded as “YES”; the “Solubility of Bifenthrin, 30 wt %” value is “YES”; the “Solubility of Bifenthrin, 40 wt %” value is reported as “NO”. Besides, the “Solubility of Bifenthrin, 50 wt %” value in data set [1] was “NO”.

For the compound “polyethylene glycol monophenyl ether [DOWANOL ™ EPH6]”, the “Solubility of Bifenthrin, 10 wt %” value in data set [1] (setting [3]) is listed as “NO”. Also, the “Solubility of Bifenthrin, 20 wt %” value in data set [1] (setting [4]) is “NO”. Moreover, in data set [1] (setting [5]), the “Solubility of Bifenthrin, 30 wt %” value is on record as “NO”. Moreover, in data set [1] (setting [6]), the “Solubility of Bifenthrin, 40 wt %” value is “NO”. Also, the “Solubility of Bifenthrin, 50 wt %” value in data set [1] (setting [7]) is reported as “NO”.
